{"source": "paper PMC12067444", "about": "“Synthesis and Pharmacological Characterization of Novel Peripheral Cannabinoid-1 Receptor Blockers Based on a Tricyclic Scaffold” (Journal of Medicinal Chemistry, 2025)", "key": {"CB1R": {"molecular_target": "T1, CB1R (Mus musculus, UniProt P47746)", "T1 construct": "crude membranes from mouse brain; from tissue; host or cells: mouse brain cortex (without cerebellum) membranes, C57Bl/6Jhsd mice", "T1 sequence (P47746 whole entry)": "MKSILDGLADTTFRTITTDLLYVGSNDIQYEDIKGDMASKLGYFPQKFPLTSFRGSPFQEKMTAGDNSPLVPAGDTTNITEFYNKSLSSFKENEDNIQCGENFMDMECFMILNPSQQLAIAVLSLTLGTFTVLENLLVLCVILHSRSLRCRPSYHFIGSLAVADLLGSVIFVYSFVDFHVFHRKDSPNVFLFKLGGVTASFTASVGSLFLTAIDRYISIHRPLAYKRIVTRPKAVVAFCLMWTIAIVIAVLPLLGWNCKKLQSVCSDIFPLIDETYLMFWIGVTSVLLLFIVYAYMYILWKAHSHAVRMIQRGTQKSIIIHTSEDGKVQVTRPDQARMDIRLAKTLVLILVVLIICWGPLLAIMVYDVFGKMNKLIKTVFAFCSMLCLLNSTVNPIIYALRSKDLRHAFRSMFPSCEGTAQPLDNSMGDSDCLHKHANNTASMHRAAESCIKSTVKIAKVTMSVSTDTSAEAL", "assay": "[35S]GTPγS binding - CB1R activity, mouse brain membranes", "format": "biochemical", "conditions": "CP-55,940 as reference agonist", "procedure": "Mouse brains were dissected, and P2 membranes were prepared and resuspended at ∼10 μg protein/μL in 350 μL assay buffer containing 0.14% BSA. Ligand-stimulated [^35S]GTPγS binding was assayed as described in the SI. […]\nutilizing [3H] C P -55,940 as the radioligand and crude membranes from humans for CB1 R or CB2 R. T he compounds were tested at various concentrations (eight points with a five-fold serial dilution starting at two m M) , and their ability to displace [3H] CP - 55, 940 was evaluated. Upon completion of the binding assays, the reaction mixture was filtered through GF/C plates, followed by four washes with cold wash buffer. After drying for one hour, 50 μL of Perkin Elmer Microscint 20 cocktail was added to the filter plate wells, and the bound [3H] C P -55,940 radioligand was measured using a β counter. All data points were duplicated, and Ki values were determined from two independent experiments using GraphPad Prism 7.02 analysis software, extracted through nonlinear regression analysis.\nTissue preparation for [ 35 S]GTPγS binding. […]\nmM EGTA, 9 mM MgCl 2, and 150 mM NaCl, followed by homogenization. The protein concentration of the suspension was determined using the BCA assay, and the suspen sion was diluted to a final concentration of 2 mg/mL in assay buffer. […]\nSupplementary Figure 1. […] The tested compounds were evaluated for their ability to inhibit CB1R-mediate d […]"}, "TA98": {"tested_on": "TA98", "assay": "Mini-Ames assay, strain TA98;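 on solubility: P0 means no precipitate in solution and no crystal growth on plates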", "format": "cell-based", "conditions": "for F value: fold vs DMSO; for Growth of lawn: replicates 1-3", "procedure": "Mini Am es assay. To conduct the assay, top agar was melted with a microwave and maintained at a temper atur e ≥47 °C in a water bath. T he assay was performed using a heat block set to 45 °C ± 2 °C. 12 × 75 mm test tubes were prepared in duplicates. For each concentration, the following components were added sequentially to a test tube:\n[…] The mixture was vortexed and then dispensed into w ells using a dispo sable pipette. The plates wer e then incubated at 37±2 °C for approximately 48 to 72 hours.\nBBbbbb BBBBbbbb BBBB = AAAAbbbbbbAAbb nnnnnnbbbbbb bboo bbbbAAbbbbbbbbnnbbbb oobbbb bbbb eeee dd bbbbbb AAbbbbnn gg AAAAbbbbbbAAbb nnnnnnbbbbbb bbBB bbbbAAbbbbbbbbnnbbbb BBbbbb DDDDDDDD nn bbAAbbbbaaAAbb AAbbbbnnaa The mutagenicity of the compound was determined by evaluating the number of revertant colonies in strains TA98 and TA100. A compound was […]\nrelated and if the fold increase in revertants (F) was equal to or greater than 2 for […]\nbackground lawn growth on the agar plates. A scoring system ranging from 0 to 4 […]\ngrowth, respectively. A score of 4 signified full '100%' growth. […]\nbackground lawn and required magnification for visualization. […]"}}, "note": "“Also recorded” adds a separate entry of the source."}
{"compound": "Cc1ccc(S(=O)(=O)NC2CCCOc3c2nn(-c2ccccc2Cl)c3-c2ccc(Cl)cc2)cc1", "note": "(stereo not shown) [BNS807]", "values": [{"measurement": "CB1R functional profile in GTPγS assay", "setting": "CB1R", "value": "inverse agonistic profile; also recorded: inverse agonist"}]}
{"compound": "O=S(=O)(NC1CCCOc2c1nn(-c1ccccc1Cl)c2-c1ccc(Cl)cc1)c1ccc(Cl)cc1", "note": "(stereo not shown) [BNS808, 4-chloro-N-[2-(2-chlorophenyl)-3-(4-chlorophenyl)-5,6,7,8-tetrahydrooxepino[3,2-c]pyrazol-8-yl]benzenesulfonamide]", "values": [{"measurement": "Number of revertants MEAN", "setting": "TA98; TA98, +S9, 31.25 μg/well", "value": 10.67}, {"measurement": "solubility", "setting": "TA98; TA98, +S9, 31.25 μg/well", "value": "P0"}, {"measurement": "F value", "setting": "TA98; TA98, +S9, 31.25 μg/well", "value": 0.97}, {"measurement": "Growth of lawn", "setting": "TA98; TA98, +S9, 31.25 μg/well", "value": "4 (A score of 4 signified full '100%' growth)"}, {"measurement": "Number of revertants MEAN", "setting": "TA98; TA98, +S9, 62.5 μg/well", "value": 11.33}, {"measurement": "solubility", "setting": "TA98; TA98, +S9, 62.5 μg/well", "value": "P0"}, {"measurement": "F value", "setting": "TA98; TA98, +S9, 62.5 μg/well", "value": 1.03}, {"measurement": "Growth of lawn", "setting": "TA98; TA98, +S9, 62.5 μg/well", "value": "4 (A score of 4 signified full '100%' growth)"}, {"measurement": "Number of revertants MEAN", "setting": "TA98; TA98, +S9, 125 μg/well", "value": 11.33}, {"measurement": "solubility", "setting": "TA98; TA98, +S9, 125 μg/well", "value": "P0"}, {"measurement": "F value", "setting": "TA98; TA98, +S9, 125 μg/well", "value": 1.03}, {"measurement": "Growth of lawn", "setting": "TA98; TA98, +S9, 125 μg/well", "value": "4 (A score of 4 signified full '100%' growth)"}, {"measurement": "Number of revertants MEAN", "setting": "TA98; TA98, +S9, 250 μg/well", "value": 13.00}, {"measurement": "solubility", "setting": "TA98; TA98, +S9, 250 μg/well", "value": "P1 (0~20% growth of crystals)"}, {"measurement": "F value", "setting": "TA98; TA98, +S9, 250 μg/well", "value": 1.18}, {"measurement": "Growth of lawn", "setting": "TA98; TA98, +S9, 250 μg/well", "value": "4 (A score of 4 signified full '100%' growth)"}, {"measurement": "Number of revertants MEAN", "setting": "TA98; TA98, +S9, 500 μg/well", "value": 10.00}, {"measurement": "solubility", "setting": "TA98; TA98, +S9, 500 μg/well", "value": "P2 (20%~60% growth of crystals)"}, {"measurement": "F value", "setting": "TA98; TA98, +S9, 500 μg/well", "value": 0.91}, {"measurement": "Growth of lawn", "setting": "TA98; TA98, +S9, 500 μg/well", "value": "4 (A score of 4 signified full '100%' growth)"}, {"measurement": "Number of revertants MEAN", "setting": "TA98; TA98, +S9, 1000 μg/well", "value": 9.67}, {"measurement": "solubility", "setting": "TA98; TA98, +S9, 1000 μg/well", "value": "P3 (60%~100% growth of crystals)"}, {"measurement": "F value", "setting": "TA98; TA98, +S9, 1000 μg/well", "value": 0.88}, {"measurement": "Growth of lawn", "setting": "TA98; TA98, +S9, 1000 μg/well", "value": "4 (A score of 4 signified full '100%' growth)"}, {"measurement": "Number of revertants MEAN", "setting": "TA98; TA98, -S9, 31.25 μg/well", "value": 6.67}, {"measurement": "solubility", "setting": "TA98; TA98, -S9, 31.25 μg/well", "value": "P0"}, {"measurement": "F value", "setting": "TA98; TA98, -S9, 31.25 μg/well", "value": 0.91}, {"measurement": "Growth of lawn", "setting": "TA98; TA98, -S9, 31.25 μg/well", "value": "4 (A score of 4 signified full '100%' growth)"}, {"measurement": "Number of revertants MEAN", "setting": "TA98; TA98, -S9, 62.5 μg/well", "value": 8.67}, {"measurement": "solubility", "setting": "TA98; TA98, -S9, 62.5 μg/well", "value": "P0"}, {"measurement": "F value", "setting": "TA98; TA98, -S9, 62.5 μg/well", "value": 1.18}, {"measurement": "Growth of lawn", "setting": "TA98; TA98, -S9, 62.5 μg/well", "value": "4 (A score of 4 signified full '100%' growth)"}, {"measurement": "Number of revertants MEAN", "setting": "TA98; TA98, -S9, 125 μg/well", "value": 7.33}, {"measurement": "solubility", "setting": "TA98; TA98, -S9, 125 μg/well", "value": "P0"}, {"measurement": "F value", "setting": "TA98; TA98, -S9, 125 μg/well", "value": 1.00}, {"measurement": "Growth of lawn", "setting": "TA98; TA98, -S9, 125 μg/well", "value": "4 (A score of 4 signified full '100%' growth)"}, {"measurement": "Number of revertants MEAN", "setting": "TA98; TA98, -S9, 250 μg/well", "value": 4.00}, {"measurement": "solubility", "setting": "TA98; TA98, -S9, 250 μg/well", "value": "P1 (0~20% growth of crystals)"}, {"measurement": "F value", "setting": "TA98; TA98, -S9, 250 μg/well", "value": 0.55}, {"measurement": "Growth of lawn", "setting": "TA98; TA98, -S9, 250 μg/well", "value": "4 (A score of 4 signified full '100%' growth)"}, {"measurement": "Number of revertants MEAN", "setting": "TA98; TA98, -S9, 500 μg/well", "value": 5.33}, {"measurement": "solubility", "setting": "TA98; TA98, -S9, 500 μg/well", "value": "P2 (20%~60% growth of crystals)"}, {"measurement": "F value", "setting": "TA98; TA98, -S9, 500 μg/well", "value": 0.73}, {"measurement": "Growth of lawn", "setting": "TA98; TA98, -S9, 500 μg/well", "value": "4 (A score of 4 signified full '100%' growth)"}, {"measurement": "Number of revertants MEAN", "setting": "TA98; TA98, -S9, 1000 μg/well", "value": 3.33}, {"measurement": "solubility", "setting": "TA98; TA98, -S9, 1000 μg/well", "value": "P3 (60%~100% growth of crystals)"}, {"measurement": "F value", "setting": "TA98; TA98, -S9, 1000 μg/well", "value": 0.45}, {"measurement": "Growth of lawn", "setting": "TA98; TA98, -S9, 1000 μg/well", "value": "4 (A score of 4 signified full '100%' growth)"}]}
